Data reported in patent US20250197387A1, “BCL-XL DEGRADERS AND USES THEREOF” (Kymera Therapeutics, Inc., priority 2021, published 2025).

Key:
Type in all cases: cell-based
[1] = tested on: Caki-2 cells; assay: CTG (CellTiter-Glo) cell viability assay, Caki-2; details: Homo sapiens, 72 h, 3 day incubation, read-out: CTG Chempartner - Caki-2 3 day: Average external-IC50
Outline: (§1)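 MOLT-4 and Caki-2 cells at 10,000 cells/well exposed 3 days at 37° C., 5% CO2 to 9 doses (1:3, top 10 μM, 0.2% DMSO). Viability by CellTiter-Glo luminescence; IC50 from three-parameter logistic fit.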

[2] = molecular target: T1, BCL-XL (Homo sapiens, UniProt Q07817); assay: Bcl-xL ELISA degradation in MOLT-4 cells, 6 h; details: for DC50: read-out: Bcl-xL ELISA in MOLT-4 degradation 6 h: Mean external-Abs DC50
T1 construct: endogenous in cells; host or cells: MOLT-4
Protocol: The letter codes for BCL-XL DC50 include: A (<0.01 μM); B (0.01-0.1 μM); C (>[…]); D (>0.5-1.0 μM); and E (>1.0 μM). The letter codes for Dmax % include A (>75%); B (50 to 75%); C (<50%).

[3] = tested on: MOLT-4 cells; assay: CTG (CellTiter-Glo) cell viability assay, MOLT-4; details: Homo sapiens, MOLT-4, 72 h, 3 day incubation, read-out: CTG Cell Viability Assay - MOLT-4 3 day: Average external-IC50
Outline: as §1

T1 sequence (Q07817 whole entry): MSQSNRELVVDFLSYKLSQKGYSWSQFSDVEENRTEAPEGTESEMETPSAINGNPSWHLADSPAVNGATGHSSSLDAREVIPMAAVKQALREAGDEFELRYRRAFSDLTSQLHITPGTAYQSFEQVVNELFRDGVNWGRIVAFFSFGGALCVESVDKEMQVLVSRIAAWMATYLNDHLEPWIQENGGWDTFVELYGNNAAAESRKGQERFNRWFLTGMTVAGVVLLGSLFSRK

## Cc1ncsc1-c1ccc([C@H](C)NC(=O)[C@@H]2C[C@@H](O)CN2C(=O)[C@@H](NC(=O)C2CCN(CCCS(=O)(=O)NC(=O)c3nc(N4CCc5cccc(C(=O)Nc6nc7ccccc7s6)c5C4)ccc3-c3cnn(CC4CCCCC4)c3C)CC2)C(C)(C)C)cc1 [I-381]
[1]
  IC50: > 10000 nM
[2]
  Dmax: > 75%
  DC50: 10 to 100 nM
[3]
  IC50: 100 to 1000 nM

## C#Cc1ccc([C@H](C)NC(=O)[C@@H]2C[C@@H](O)CN2C(=O)[C@@H](NC(=O)CCCCCS(=O)(=O)NC(=O)c2nc(N(C)c3cc(C)c(Nc4nc5ccccc5s4)nn3)ccc2-c2cnn(CC34CC5CC(CC(C5)C3)C4)c2C)C(C)(C)C)cc1 [I-382]
[1]
  IC50: > 10000 nM
[2]
  Dmax: > 75%
  DC50: < 10 nM
[3]
  IC50: < 100 nM

## Cc1ncsc1-c1ccc(CNC(=O)[C@@H]2C[C@@H](O)CN2C(=O)[C@@H](NC(=O)C2(F)CC2)C(C)(C)C)c(OCCN2CCN(CC[C@H](CSc3ccccc3)Nc3ccc(S(=O)(=O)NC(=O)c4ccc(N5CC6(CC(N7CCC[C@H]7c7ccccc7C7CC7)C6)C5)cc4)cc3S(=O)(=O)C(F)(F)F)CC2)c1 [I-400]
[1]
  IC50: > 10000 nM
[2]
  Dmax: > 75%
  DC50: 10 to 100 nM
[3]
  IC50: 100 to 1000 nM

## C#Cc1ccc(CNC(=O)[C@@H]2C[C@@H](O)CN2C(=O)[C@H](c2cc(N3CCN(c4ccc(S(=O)(=O)NC(=O)c5nc(N6CCc7cccc(C(=O)Nc8nc9ccccc9s8)c7C6)ccc5-c5cnn(CC6CCCCC6)c5C)cc4)CC3)no2)C(C)C)cc1 [I-407]
[1]
  IC50: 1000 to 10000 nM
[2]
  Dmax: 50 to 75%
  DC50: 100 to 500 nM
[3]
  IC50: 100 to 1000 nM

## C#Cc1ccc(CNC(=O)[C@@H]2C[C@@H](O)CN2C(=O)[C@H](c2cc(N3CCN(c4ccc(S(=O)(=O)NC(=O)c5nc(N6CCc7cccc(C(=O)Nc8nc9ccccc9s8)c7C6)ccc5-c5cnn(CC6CCCCC6)c5C)cc4)CC3)no2)C(C)C)c(OC)c1 [I-408]
[1]
  IC50: > 10000 nM
[2]
  Dmax: 50 to 75%
  DC50: < 10 nM
[3]
  IC50: < 100 nM

## Cc1ncsc1-c1ccc([C@H](C)NC(=O)[C@@H]2C[C@@H](O)CN2C(=O)[C@@H](NC(=O)C2CCN(c3ccc(S(=O)(=O)NC(=O)c4nc(N5CCc6cccc(C(=O)Nc7nc8ccccc8s7)c6C5)ccc4-c4cnn(CC5(OCCO)CCCCC5)c4C)cc3)CC2)C(C)(C)C)cc1 [I-409]
[1]
  IC50: > 10000 nM
[2]
  Dmax: > 75%
  DC50: 10 to 100 nM
[3]
  IC50: < 100 nM

## Cc1ncsc1-c1ccc(CNC(=O)[C@@H]2C[C@@H](O)CN2C(=O)[C@@H](NC(=O)[C@@H]2CCN(c3ccc(S(=O)(=O)NC(=O)c4nc(N5CCc6cccc(C(=O)Nc7nc8ccccc8s7)c6C5)ccc4-c4cnn(CC5CCCCC5)c4C)cc3)C2)C(C)(C)C)cc1 [I-410]
[1]
  IC50: > 10000 nM
[2]
  Dmax: > 75%
  DC50: 10 to 100 nM
[3]
  IC50: < 100 nM

## C#Cc1ccc(CNC(=O)[C@@H]2C[C@@H](O)CN2C(=O)[C@@H](NC(=O)CCN(C)CCS(=O)(=O)NC(=O)c2nc(N3CCc4cccc(C(=O)Nc5nc6cccnc6s5)c4C3)ccc2-c2cnn(CC3CCCCC3)c2C)C(C)(C)C)cc1 [I-413]
[1]
  IC50: > 10000 nM
[2]
  Dmax: > 75%
  DC50: 10 to 100 nM
[3]
  IC50: 100 to 1000 nM

## C#Cc1ccc([C@H](CO)NC(=O)[C@@H]2C[C@@H](O)CN2C(=O)[C@@H](NC(=O)CCNCCS(=O)(=O)NC(=O)c2nc(N3CCc4cccc(C(=O)Nc5nc6cccnc6s5)c4C3)ccc2-c2cnn(CC(C)C)c2C)C(C)(C)C)cc1 [I-414]
[1]
  IC50: > 10000 nM
[2]
  Dmax: 50 to 75%
  DC50: > 1000 nM
[3]
  IC50: > 3000 nM

## Cc1ncsc1-c1ccc([C@H](C)NC(=O)[C@@H]2C[C@@H](O)CN2C(=O)[C@@H](NC(=O)CCCCCS(=O)(=O)NC(=O)c2nc(N3CCc4cccc(C(=O)Nc5nc6ccccc6s5)c4C3)ccc2-c2cnn(CC3CCCCC3)c2C)C(C)(C)CCOP(=O)(O)O)cc1 [I-415]
[1]
  IC50: > 10000 nM
[2]
  Dmax: 50 to 75%
  DC50: > 1000 nM
[3]
  IC50: > 3000 nM

## Cc1ncsc1-c1ccc([C@H](C)NC(=O)[C@@H]2C[C@@H](O)CN2C(=O)[C@H](NC(=O)CCCCCS(=O)(=O)NC(=O)c2nc(N3CCc4cccc(C(=O)Nc5nc6ccccc6s5)c4C3)ccc2-c2cnn(CC3CCCCC3)c2C)C(C)(C)CCOP(=O)(O)O)cc1 [I-416]
[1]
  IC50: > 10000 nM
[2]
  Dmax: > 75%
  DC50: 100 to 500 nM
[3]
  IC50: > 3000 nM

## C#Cc1ccc(CNC(=O)[C@@H]2C[C@@H](O)CN2C(=O)[C@@H](NC(=O)CCCCCS(=O)(=O)NC(=O)c2nc(N3CCc4cccc(C(=O)Nc5nc6ccccc6s5)c4C3)ccc2-c2cnn(CC3CCCCC3)c2C)C(C)(C)CCOP(=O)(O)O)cc1 [I-417]
[1]
  IC50: > 10000 nM
[2]
  Dmax: 50 to 75%
  DC50: > 1000 nM
[3]
  IC50: > 3000 nM

## C#Cc1ccc(CNC(=O)[C@@H]2C[C@@H](O)CN2C(=O)[C@H](NC(=O)CCCCCS(=O)(=O)NC(=O)c2nc(N3CCc4cccc(C(=O)Nc5nc6ccccc6s5)c4C3)ccc2-c2cnn(CC3CCCCC3)c2C)C(C)(C)CCOP(=O)(O)O)cc1 [I-418]
[1]
  IC50: > 10000 nM
[2]
  Dmax: > 75%
  DC50: 100 to 500 nM
[3]
  IC50: 100 to 1000 nM

## Cc1ncsc1-c1ccc([C@H](C)NC(=O)[C@@H]2C[C@@H](O)CN2C(=O)[C@@H](NC(=O)C2CCCN(c3ccc(S(=O)(=O)NC(=O)c4nc(N5CCc6cccc(C(=O)Nc7nc8ccccc8s7)c6C5)ccc4-c4cnn(CC5CCCCC5)c4C)cc3)C2)C(C)(C)C)cc1 (some centres unmarked) [I-419]
[1]
  IC50: 1000 to 10000 nM
[2]
  Dmax: > 75%
  DC50: < 10 nM
[3]
  IC50: < 100 nM

## Cc1ncsc1-c1ccc([C@H](C)NC(=O)[C@@H]2C[C@@H](O)CN2C(=O)[C@@H](NC(=O)C#CC2CCN(S(=O)(=O)NC(=O)c3nc(N4CCc5cccc(C(=O)Nc6nc7ccccc7s6)c5C4)ccc3-c3cnn(CC4CCCCC4)c3C)CC2)C(C)(C)C)cc1 [I-420]
[1]
  IC50: 1000 to 10000 nM
[2]
  Dmax: > 75%
  DC50: 10 to 100 nM
[3]
  IC50: < 100 nM

## Cc1ncsc1-c1ccc(CNC(=O)[C@@H]2C[C@@H](O)CN2C(=O)[C@@H](NC(=O)C2CN(CCCS(=O)(=O)NC(=O)c3nc(N4CCc5cccc(C(=O)Nc6nc7ccccc7s6)c5C4)ccc3-c3cnn(CC4CCCCC4)c3C)C2)C(C)(C)C)cc1 [I-421]
[1]
  IC50: > 10000 nM
[2]
  Dmax: > 75%
  DC50: 10 to 100 nM
[3]
  IC50: 1000 to 3000 nM

## Cc1ncsc1-c1ccc(CNC(=O)[C@@H]2C[C@@H](O)CN2C(=O)[C@@H](NC(=O)C2CN(CCS(=O)(=O)NC(=O)c3nc(N4CCc5cccc(C(=O)Nc6nc7ccccc7s6)c5C4)ccc3-c3cnn(CC4CCCCC4)c3C)C2)C(C)(C)C)cc1 [I-422]
[1]
  IC50: > 10000 nM
[2]
  Dmax: > 75%
  DC50: 100 to 500 nM
[3]
  IC50: 100 to 1000 nM

## Cc1cc(N(C)c2ccc(-c3cnn(CC45CC6CC(CC(C6)C4)C5)c3C)c(C(=O)NS(=O)(=O)CCCCCc3cccc4c3n(C)c(=O)n4C3CCC(=O)NC3=O)n2)nnc1Nc1nc2ccccc2s1 (centres unmarked) [I-423]
[1]
  IC50: 1000 to 10000 nM
[2]
  Dmax: > 75%
  DC50: < 10 nM
[3]
  IC50: < 100 nM

## Cc1cc(N(C)c2ccc(-c3cnn(CC45CC6CC(CC(C6)C4)C5)c3C)c(C(=O)NS(=O)(=O)CCCCCc3ccc4c(c3)n(C)c(=O)n4C3CCC(=O)NC3=O)n2)nnc1Nc1nc2ccccc2s1 (centres unmarked) [I-424]
[1]
  IC50: 1000 to 10000 nM
[2]
  Dmax: > 75%
  DC50: < 10 nM
[3]
  IC50: < 100 nM

## Cc1c(-c2ccc(N3CCc4cccc(C(=O)Nc5nc6ccccc6s5)c4C3)nc2C(=O)NS(=O)(=O)CCCCCc2ccc3c(c2)n(C)c(=O)n3C2CCC(=O)NC2=O)cnn1CC1CCCCC1 (centres unmarked) [I-425]
[1]
  IC50: 1000 to 10000 nM
[2]
  Dmax: > 75%
  DC50: < 10 nM
[3]
  IC50: < 100 nM

## Cc1c(-c2ccc(N3CCc4cccc(C(=O)Nc5nc6ccccc6s5)c4C3)nc2C(=O)NS(=O)(=O)CCCCCc2cccc3c2n(C)c(=O)n3C2CCC(=O)NC2=O)cnn1CC1CCCCC1 (centres unmarked) [I-426]
[1]
  IC50: 1000 to 10000 nM
[2]
  Dmax: > 75%
  DC50: < 10 nM
[3]
  IC50: < 100 nM

## Cc1cc(N(C)c2ccc(-c3cnn(CC45CC6CC(CC(C6)C4)C5)c3C)c(C(=O)NS(=O)(=O)CCN(C)CCC(=O)N[C@H](C(=O)N3C[C@H](O)C[C@H]3C(=O)N[C@@H](C)c3ccc(-c4scnc4C)cc3)C(C)(C)C)n2)nnc1Nc1nc2ccccc2s1 [I-428]
[1]
  IC50: > 10000 nM
[2]
  Dmax: > 75%
  DC50: 10 to 100 nM
[3]
  IC50: < 100 nM

## C#Cc1ccc(CNC(=O)[C@@H]2C[C@@H](O)CN2C(=O)[C@@H](NC(=O)CCNCCS(=O)(=O)NC(=O)c2nc(N(C)c3cc(C)c(Nc4nc5ccccc5s4)nn3)ccc2-c2cnn(CC34CC5CC(CC(C5)C3)C4)c2C)C(C)(C)C)cc1 [I-429]
[1]
  IC50: > 10000 nM
[2]
  Dmax: > 75%
  DC50: 10 to 100 nM
[3]
  IC50: 100 to 1000 nM

## C#Cc1ccc(CNC(=O)[C@@H]2C[C@@H](O)CN2C(=O)[C@@H](NC(=O)CCN(C)CCS(=O)(=O)NC(=O)c2nc(N(C)c3cc(C)c(Nc4nc5ccccc5s4)nn3)ccc2-c2cnn(CC34CC5CC(CC(C5)C3)C4)c2C)C(C)(C)C)cc1 [I-430]
[1]
  IC50: > 10000 nM
[2]
  Dmax: > 75%
  DC50: 10 to 100 nM
[3]
  IC50: < 100 nM

## C#Cc1ccc(CNC(=O)[C@@H]2C[C@@H](O)CN2C(=O)[C@@H](NC(=O)C2CN(CCS(=O)(=O)NC(=O)c3nc(N(C)c4cc(C)c(Nc5nc6ccccc6s5)nn4)ccc3-c3cnn(CC45CC6CC(CC(C6)C4)C5)c3C)C2)C(C)(C)C)cc1 [I-433]
[1]
  IC50: > 10000 nM
[2]
  Dmax: > 75%
  DC50: 100 to 500 nM
[3]
  IC50: 100 to 1000 nM

## Cc1cc(N(C)c2ccc(-c3cnn(CC45CC6CC(CC(C6)C4)C5)c3C)c(C(=O)NS(=O)(=O)c3ccc(N4CC(C(=O)N[C@H](C(=O)N5C[C@H](O)C[C@H]5C(=O)N[C@@H](C)c5ccc(-c6scnc6C)cc5)C(C)(C)C)C4)cc3)n2)nnc1Nc1nc2ccccc2s1 [I-434]
[1]
  IC50: > 10000 nM
[2]
  Dmax: > 75%
  DC50: 10 to 100 nM
[3]
  IC50: < 100 nM
